Literature values, collected in US20170101350A1, “SYNTHETIC ACID COMPOSITIONS AND USES THEREOF” (priority 2014, published 2017).

Conditions: death in 2-3 minutes

Cl [hydrogen chloride gas, hydrogen chloride]
levels at which death can occur: 1300-2000 ppm
